{
  "source": "patent US5770617A",
  "about": "“Terbenzimidazoles useful as antifungal agents” (Rutgers, The State University of New Jersey, priority 1997, dated 1998)",
  "key": {"[1]": {"molecular_target": "T1, calf thymus topoisomerase I (Bos taurus, UniProt F1MN93)", "T1 construct": "DNA topoisomerase I was purified from calf thymus gland as reported previously; from tissue; host or cells: calf thymus gland", "T1 sequence (F1MN93 1-767)": "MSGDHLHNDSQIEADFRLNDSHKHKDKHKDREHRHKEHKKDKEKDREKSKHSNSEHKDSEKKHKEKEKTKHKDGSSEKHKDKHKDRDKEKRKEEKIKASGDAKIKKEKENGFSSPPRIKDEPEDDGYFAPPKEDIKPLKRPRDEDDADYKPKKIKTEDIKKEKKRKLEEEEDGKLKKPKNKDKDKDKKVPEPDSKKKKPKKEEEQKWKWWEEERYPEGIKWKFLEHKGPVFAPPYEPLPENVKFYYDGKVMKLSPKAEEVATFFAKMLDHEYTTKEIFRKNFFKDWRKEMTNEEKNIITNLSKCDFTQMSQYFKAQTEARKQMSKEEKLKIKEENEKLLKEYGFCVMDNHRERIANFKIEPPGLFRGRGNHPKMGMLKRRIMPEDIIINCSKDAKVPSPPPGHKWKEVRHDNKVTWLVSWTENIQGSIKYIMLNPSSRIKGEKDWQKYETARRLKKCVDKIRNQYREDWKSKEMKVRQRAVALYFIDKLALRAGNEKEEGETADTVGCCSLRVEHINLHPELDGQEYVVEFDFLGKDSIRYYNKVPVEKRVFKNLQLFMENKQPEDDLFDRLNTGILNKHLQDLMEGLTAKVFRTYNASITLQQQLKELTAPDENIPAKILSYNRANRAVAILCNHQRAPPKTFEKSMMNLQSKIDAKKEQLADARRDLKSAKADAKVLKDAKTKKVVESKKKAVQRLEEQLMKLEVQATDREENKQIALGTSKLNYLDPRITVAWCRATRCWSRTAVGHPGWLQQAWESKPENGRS", "experiment": "Topoisomerase I-mediated DNA cleavage assay (calf thymus enzyme)", "format": "biochemical", "conditions": "for Topo I-mediated DNA cleavage (REC, Relative Effective Concentration): concentration relative to Hoechst 33342 (arbitrarily 1) producing the same cleavage on plasmid DNA, calf thymus topoisomerase I", "description": "A. Topoisomerase I-Mediated DNA Cleavage Assays\nDNA topoisomerase I was purified from calf thymus gland as reported previously by B. D. Halligan et al., J. Biol. Chem., 260, 2475 (1985).\nPlasmid YEpG was also purified by the alkali lysis method followed by phenol deproteination and CsCl/ethidium isopycnic centrifugation as described by T. Maniatis et al., Molecular Cloning, A Laboratory Manual, Cold Spring Harbor Labs, N.Y. (1982) at pages 149-185. The end-labeling of the plasmid was accomplished as previously described by L. F. Liu et al., J. Biol. Chem., 258, 15365 (1983). The cleavage assays were performed as previously reported by A. Y. Chen et al., Cancer Res., 53, 1332 (1993). Human topoisomerase I was isolated as a recombinant fusion protein using a T7 expression system."}, "[2]": {"tested_on": "CPT-K5 (camptothecin-resistant variant of RPMI 8402)", "experiment": "MTT cytotoxicity assay, CPT-K5", "format": "cell-based, human", "protocol": "(§1) The cytotoxicity was determined using the as MTT-microtiter plate tetrazolinium cytotoxicity assay (MTA) following the procedures of F. Denizot et al., J. Immunol. Methods, 89, 271 (1986); J. Carmichael et al., Cancer Res, 47, 936 (1987) and T. J. Mosmann et al., Immunol. Methods, 65, 55 (1983). The human lymphoblast RPMI 8402 and its camptothecin-resistant variant cell line, CPT-K5 were provided by Dr. Toshiwo Andoh (Aichi Cancer Center Research Institute, Nagoya, Japan). See, for example, T. Andoh et al., Adv. Pharmacol., 29B, 93 (1994). The cytotoxicity assay was performed using 96-well microtiter plates. Cells were grown in suspension at 37 ° C. in 5% CO2 and maintained by regular passage in RPMI medium supplemented with 10% heat inactivated fetal bovine serum, L-glutamine (2 mM), penicillin (100 U/ml), and streptomycin (0.1 mg/ml). For determination of IC50, cells were exposed continuously with varying concentrations of drug concentrations and MTT assays were performed at the end of the fourth day."}, "[3]": {"tested_on": "human epidermoid carcinoma KB3-1 cell line", "experiment": "MTT cytotoxicity assay, KB3-1", "format": "cell-based", "conditions": "KB 3-1, 96 h, read-out: Cytotoxicity IC50 KB3-1", "protocol": "as §1\n(§2) The drug sensitive human epidermoid carcinoma KB3-1 cell line (S. Aliyama et al., Somatic Cell Mol. Genet., 11, 117 (1985)) and its vinblastine-selected multidrug-resistant variant KBV-1 cells (D. W. Shen et al., Science, 32, 643 (1986)) were provided by Dr. Michael Gottesmann (National Cancer Institute, Bethesda, Md.). […]"}, "[4]": {"tested_on": "KBV-1 cells (multidrug-resistant variant, overexpress MDR1)", "experiment": "MTT cytotoxicity assay, KBV-1", "format": "cell-based, human", "protocol": "as §1, §2"}, "[5]": {"tested_on": "KBV-1 cells (multidrug-resistant variant, overexpress MDR1)", "conditions": "cited from earlier work"}, "[6]": {"tested_on": "CPT-K5 (camptothecin-resistant variant of RPMI 8402)", "conditions": "CPT-K5 versus RPMI 8402; reported by A. Y. Chen et al. 1993; cited from earlier work"}, "[7]": {"tested_on": "yeast cells expressing yeast topoisomerase I", "experiment": "Yeast cytotoxicity assay, yeast topoisomerase I", "format": "cell-based, S. cerevisiae", "description": "The topoisomerase I-specific in vivo cytotoxicity assay was adapted from A. M. Knab et al., J. Biol. Chem., 268, 22322 (1993). In this system, various topoisomerase I genes or cDNAs cloned into the single-copy yeast plasmid vector (YCpGAL1; Knab et al., cited above) are expressed under the control of the GAL1 promoter in the JN2-134 strain of S. cerevisiae (MAT, rad52::Leu2, trp1, ade2-1, his7, ura3-52, ise1, top1-1, and leu2; M. A. Bjornsti et al., Cancer Res., 49, 6318 (1989)). The topoisomerase I gene or cDNA constructs in the vector are, respectively, the wild-type yeast topoisomerase I gene (YCpGAL-ScTOP1; need cite (1989)), a nonfunctional topoisomerase I gene where the active site tyrosine-727 is mutated to phenylalanine (YCPGAL1-Sctop1Y727; A. M. Knab et al., J. Biol. Chem., 268, 22322 (1993)), and the wild-type human topoisomerase I cDNA (YCp-GAL-hTOP1; M. A. Bjornsti et al., Cancer Res., 49, 6318 (1989)).\nTo qualitatively test the cytotoxicity and the topoisomerase I specificity of the drugs, yeast cells containing the specified plasmid were grown in dropout medium supplemented with uracil, 2% galactose, and the drug being tested."}},
  "data": [
    {"smiles": "N#Cc1ccc2[nH]c(-c3ccc4[nH]c(-c5ccc6[nH]cnc6c5)nc4c3)nc2c1", "note": "[Compound 11, 5-Cyano-2-[2'-(benzimidazol-5\"-yl)benzimidazol-5'-yl]benzimidazole]", "values": [
      {"measurement": "Topo I-mediated DNA cleavage (REC, Relative Effective Concentration)", "setting": "[1]", "result": 1}
    ]},
    {"smiles": "c1ccc(-c2ccc3[nH]c(-c4ccc5[nH]c(-c6ccc7[nH]cnc7c6)nc5c4)nc3c2)cc1", "note": "[Compound 13, 5-Phenyl-2-[2'(benzimidazol-5\"-yl)benzimidazol-5'-yl]benzimidazole]", "values": [
      {"measurement": "effect against camptothecin-resistant CPT-K5 cells, in words", "setting": "[2]", "result": "effective"},
      {"measurement": "potency as topoisomerase I inhibitor compared with Hoechst 33342, in words", "setting": "[1]", "result": "approximately one-half as potent"},
      {"measurement": "Topo I-mediated DNA cleavage (REC, Relative Effective Concentration)", "setting": "[1]", "result": 2},
      {"measurement": "IC50", "setting": "[3]", "result": 0.58, "unit": "µM"},
      {"measurement": "difference between IC50 values in KB 3-1 and KB V-1 cells", "setting": "[4]", "result": "little difference"}
    ]},
    {"smiles": "CCOc1ccc(-c2nc3cc(-c4nc5cc(N6CCN(C)CC6)ccc5[nH]4)ccc3[nH]2)cc1", "note": "[Hoechst 33342, 2'-(4-ethoxyphenyl)-5-(4-methyl-1-piperazinyl)-2,5'-bi-1H-benzimidazole]", "values": [
      {"measurement": "effect against camptothecin-resistant CPT-K5 cells, in words", "setting": "[2]", "result": "effective"},
      {"measurement": "fold less cytotoxic to KB V-1 cells than to KB 3-1", "setting": "[5]; background, previously reported", "result": "approximately 130 fold"},
      {"measurement": "difference of IC50 for KB 3-1 as compared to KB V-1 cells", "setting": "[5]; reported by A. Y. Chen et al. 1994", "result": "approximately two-orders of magnitude"}
    ]},
    {"smiles": "CC[C@@]1(O)C(=O)OCc2c1cc1n(c2=O)Cc2cc3ccccc3nc2-1", "note": "[camptothecin]", "values": [
      {"measurement": "relative resistance (ratio of IC50 of resistant versus drug sensitive cell line)", "setting": "[6]", "result": "2,500 fold"},
      {"measurement": "cytotoxicity to yeast cells expressing functional yeast topoisomerase I", "setting": "[7]", "result": "camptothecin-sensitive"},
      {"measurement": "resistance of yeast cells expressing yeast topoisomerase I relative to yeast cells expressing human topoisomerase I", "setting": "[7]", "result": "at least ten times more resistant"}
    ]}
  ]
}
